Where “and” joins values, the source holds several entries; their conditions need not be identical. Equal entries are not always repeated. Entries after “also recorded” stand apart in the source; their conditions may differ.
Key:
Type in all cases: cell-based, Staphylococcus aureus
S. aureus USA#18 = experiment: Activity II bioassay (anti-PBP2' action), agar well diffusion with methicillin 10 μg/ml; conditions: for activity II: pure compound at 1 mg/ml
Source text: (§1) Activities I (inhibitory/killing actions against bacteria), II (anti-PBP2' action) and III (action against β-lactamase) were quantitated by bioassay, using large plates (14 cm diameter circular, or 25×25 cm square) containing IsoSensitest agar (Unipath CM 471) to a depth of about 4 mm. surface-seeded with S. aureus. Assay strains and additions to agar varied according to the activity being assayed (Table 4).
(§2) 6 mm wells were cut into the agar and filled with appropriate dilutions (in duplicate) of solutions of the material to be assayed. Following overnight incubation, diameters of inhibition zones were measured, and plots made of (log concentration) vs zone diameter. MNIC was calculated by extrapolating the regression line to zone diameter=6 mm; it was expressed ether as a concentration (μg/ml) or an activity (reciprocal of concentration in mg/ml).

S. aureus Oxford = experiment: Activity I bioassay (inhibitory/killing action), agar well diffusion; conditions: pure compound at 1 mg/ml
Source text: as §1, §2

[1] = system: high level MRSA (20 strains of MRSA); experiment: MIC of methicillin alone and in presence of tea extract, agar dilution, high level MRSA (activity II); conditions: strain no. is first number of line
Procedure: A 2% extract of crushed leaf Japanese "Sencha" tea was made in boiling water, and filtered through a Millipore filter. This extract contains about 14.7 mg/ml of tea.
Sodium methicillin (SmithKline Beecham) and vancomycin hydrochloride (Lilly Industries) were Laboratory Reference preparation.
IsoSensitest agar (Unipath CM 471) was supplemented with 20 g NaCl/L.
(§3) Strains were grown overnight at 37° C. in IsoSensitest™ broth (ISB, Unipath CM 473), and 1 μl amounts (c. 10^6 colony forming units (cfu) were inoculated on to six series of plates of IsoSensitest™ agar containing doubling dilutions of methicillin (1024- 1 μg/ml) alone and in the presence of tea extract in various sub-inhibitory concentrations, viz final dilutions of 1/40, 1/70, 1/100, 1/200 and 1/300.
(§4) Plates were incubated at 30° for 48 h. The minimum inhibitory concentration (MIC) of antibiotic was calculated for each sample, as a measure of activity II.

low level MRSA = experiment: MIC of methicillin alone and in presence of tea extract, low level MRSA (activity II); conditions: strain no. is first number of line
Procedure: as §3, §4
A further 20 strains of low level MRSA were tested for activity II according to the procedures described in Example 1.

MRSA = experiment: Methicillin MIC in presence of sub-inhibitory vancomycin (control); conditions: sub-inhibitory vancomycin in place of tea
Procedure: A similar experiment was done using methicillin diluted in a series of sub-inhibitory concentrations of vancomycin, namely 0.5, 0.28, 0.2, 0.1 and 0.07 μg/l.
as §4

MSSA = experiment: MIC of benzylpenicillin in presence and absence of tea extract, MSSA (activity III)
Procedure: as §3, §4
The 40 strains tested in Examples 1 and 2 above, together with 9 strains of methicillin-sensitive Staph. aureus (MSSA) were tested for their resistance to benzylpenicillin in the presence or absence of tea extract, with a view to measuring activity III. The procedures used were those described in Example 1, except that benzylpenicillin replaced methicillin. Both MSSA and MRSA have natural resistance to benzylpenicillin through the production of β-lactamase.

| Compound | activity II, pure compounds (S. aureus USA#18) | activity I (S. aureus Oxford) | activity II (S. aureus USA#18) | also measured |
| --- | --- | --- | --- | --- |
| O=c1c(O)c(-c2ccc(O)c(O)c2)oc2cc(O)cc(O)c12 [Quercitin, quercitin] | no activity II | – | – | – |
| Oc1cc(O)c2c(c1)O[C@H](c1ccc(O)c(O)c1)[C@H](O)C2 [Epicatechin, epicatechin] | – | no evidence of activity I or II | no evidence of activity I or II | – |
| O=c1c(O)c(-c2ccc(O)cc2)oc2cc(O)cc(O)c12 [kaempferol] | no activity II | – | – | – |
| O=C(O[C@@H]1Cc2c(O)cc(O)cc2O[C@@H]1c1cc(O)c(O)c(O)c1)c1cc(O)c(O)c(O)c1 [EGCG, epigallocatechin gallate] | no activity II | – | – | – |
| Cn1c(=O)c2[nH]cnc2n(C)c1=O [theophylline] | – | no evidence of activity I or II | no evidence of activity I or II | – |
| COc1cccc(OC)c1C(=O)N[C@@H]1C(=O)N2[C@@H]1SC(C)(C)[C@@H]2C(=O)O [methicillin] | – | – | – | MIC of methicillin, alone ([1]; no tea): 512 µg/mL; MIC of methicillin, +T/300 ([1]; tea extract 1/300): 512 µg/mL; MIC of methicillin, alone (low level MRSA): 32 µg/mL and 64 µg/mL |
| O=C(O)c1cc(O)c(O)c(O)c1 [gallic acid] | – | no evidence of activity I or II | no evidence of activity I or II | – |
| CN[C@H](CC(C)C)C(=O)N[C@H]1C(=O)N[C@@H](CC(N)=O)C(=O)N[C@H]2C(=O)N[C@H]3C(=O)N[C@H](C(=O)N[C@H](C(=O)O)c4cc(O)cc(O)c4-c4cc3ccc4O)[C@H](O)c3ccc(c(Cl)c3)Oc3cc2cc(c3O[C@@H]2O[C@H](CO)[C@@H](O)[C@H](O)[C@H]2O[C@H]2C[C@](C)(N)[C@H](O)[C@H](C)O2)Oc2ccc(cc2Cl)[C@H]1O [vancomycin] | – | – | – | effect of vancomycin on methicillin MIC / synergy (MRSA): no synergistic effect whatever; also recorded: no reduction in methicillin MIC |
| O=C(/C=C/c1ccc(O)c(O)c1)O[C@@H]1C[C@](O)(C(=O)O)C[C@@H](O)[C@H]1O [chlorogenic acid] | – | no evidence of activity I or II | no evidence of activity I or II | – |
| CC1(C)S[C@@H]2[C@H](NC(=O)Cc3ccccc3)C(=O)N2[C@H]1C(=O)O [benzylpenicillin] | – | – | – | MIC (MSSA; Staphylococcus aureus, 48 h, read-out: MIC of benzylpenicillin, alone, MSSA, strain no. is first number of line): > 512 µg/mL; MIC of benzylpenicillin, alone (MSSA; strain no. is first number of line): 512 µg/mL and 256 µg/mL |
| Oc1cc(O)c2c(c1)O[C@H](c1cc(O)c(O)c(O)c1)[C@H](O)C2 [EGC, Epigallocatechin] | no activity II | – | – | – |
| Cn1cnc2c1c(=O)[nH]c(=O)n2C [theobromine] | – | no evidence of activity I or II | no evidence of activity I or II | – |

Reference: patent US5879683A, “Antibacterial agent containing tea extract or active fraction thereof and β-lactam antibiotic” (priority 1994, dated 1999)
